Source: US20050049299A1, “Selective inhibitors of stat-3 activation and uses thereof” (priority 2003, published 2005)
Entries after “also recorded” stand apart in the source; their conditions may differ.

How the values were obtained:
Format in all cases: cell-based, human
MM.1S and MM.1R cells = test: Cell growth of dexamethasone-sensitive and dexamethasone-resistant MM cells (MTT); conditions: curcumin 10 μM, 3 days
Experimental: MM.1S and MM.1R cells were cultured with dexamethasone (1 μM) in the absence or presence of curcumin (10 μM) for 3 days and cell viability was checked by the MTT method. Results are shown as mean (±s.d. indicated by error bar) of percent cell growth of triplicate cultures compared to the untreated control.
(§1) The antiproliferative effects of curcumin against different multiple myeloma cell lines were determined by the MTT dye uptake method as described earlier (28). Briefly, the cells (5000/well) were incubated in triplicate in a 96-well plate in the presence or absence of indicated test samples in a final volume of 0.1 ml for 24 h at 37° C. Thereafter, 0.025 ml of MTT solution (5 mg/ml in PBS) was added to each well. After a 2-h incubation at 37° C., 0.1 ml of the extraction buffer (20% SDS, 50% dimethylformamide) was added and the extract incubated overnight at 37° C. for solubilization of formazan crystals. The OD at 570 nm was measured using a 96-well multiscanner autoreader (Dynatech MR 5000), with the extraction buffer serving as blank. Percent cell viability cell viability was calculated using the following formula: Percent cell viability=(OD of the experiment samples/OD of the control)×100.
Multiple myeloma treated with dex gradually develops resistance to this drug.

MM.1 cells = test: IL-6-induced proliferation of MM.1 cells; conditions: curcumin 10 μM, 48 h, serum-free
Experimental: FIGS. 7A-B show& that IL-6 induces proliferation of human multiple myeloma cells and curcumin inhibits it. […] Cell proliferation assays were performed as described below. Results are shown as mean (±s.d.) of percent [^3H] thymidine incorporation or percent proliferation by MTT of triplicate cultures compared to the untreated control.
as §1, with “Thereafter, 0.025 ml of MTT solution (5 mg/ml in PBS) was added to each well. After a 2-h incubation at 37° C., 0.1 ml of the extraction buffer (20% SDS, 50% dimethylformamide) was added and the extract incubated overnight at 37° C. for solubilization of formazan crystals.” left out
The antiproliferative effects of curcumin were also monitored by the thymidine incorporation method. […] Six hours before the completion of experiment, cells were pulse treated with 0.5 μCi [^3H]thymidine, and the uptake of [^3H]thymidine was monitored using a Matrix-9600 β-counter (Packard Instruments, Downers Grove, Ill.). […]
Whether curcumin suppresses the proliferative effects of IL-6 was determined.

STAT3 phosphorylation = test: Constitutive STAT3 phosphorylation in MDA 1986LN cells (Western blot)
Experimental: TU167, MDA 1986LN, TU 686, MDA 686LN and JMAR cells (2×10^6 cells) were lysed and whole cell extracts (30 μg) were resolved on 7.5% SDS-PAGE, electrotransferred to a nitrocellulose membrane and probed for phosphorylated-STAT3 (p-STAT3) and total STAT3 proteins. […] MDA 1986LN cells (2×10^6 cells) were treated with curcumin (50 μM) for indicated durations or with indicated concentrations of curcumin for 1 h and levels of p-STAT3 (upper panels) and STAT3 (lower panels) were examined in whole cell extracts by Western blotting.
MDA 1986LN cells (2×10^6 cells) were treated with curcumin (50 μM) for the indicated durations (upper panels) or treated for 1 h and washed twice with PBS to remove curcumin before re-suspending in fresh medium. Cells were removed at indicated times and lysed to prepare the whole cell extract (lower panels). The whole cell extracts (30 μg) were resolved on 7.5% SDS-PAGE, electrotransferred to a nitrocellulose membrane, probed for the p-STAT3 (upper panels) and striped and reprobed for STAT3 (lower panels).
MDA 1986LN cells (2×10^6 cells) were treated with indicated concentrations of AG490 for 8 h and whole extracts prepared. These whole-cell extracts (30 μg) were resolved on 7.5% SDS-PAGE, electrotransferred to a nitrocellulose membrane, probed for p-STAT3 (upper panel), striped and reprobed for STAT3 (middle panel) and β-actin (lower panel). […] The cells were treated with AG490 (100 μM) for the indicated durations and whole cell extracts prepared and analyzed as mentioned earlier. FIG. 15C compares the effect of curcumin and AG490 on proliferation of MDA 1986LN cells by MTT assay.
Since STAT3 was constitutively phosphorylated in MDA 1986LN cells, the ability of curcumin to inhibit the constitutive STAT3 phosphorylation was examined. MDA 1986LN cells were treated either with curcumin (50 μM) for different durations or with different concentrations of curcumin for 1 h and the p-STAT3 levels and STAT3 levels were determined. Curcumin inhibited the constitutively active STAT3 in a time-(FIG. 11B) and a dose-(FIG. 11C) manner. This curcumin-induced inhibition could be observed as early as 30 min and with a concentration as low as 25 μM.
MDA 1986LN cells were treated with curcumin for indicated times or for 1 h and the cells were washed twice with PBS to remove curcumin. The cells were then cultured in media for various durations and the levels of phosphorylated STAT3 were determined. […] However, the STAT3 levels were unaffected by curcumin treatment.
The concentration and the exposure time for AG490 to inhibit STAT3 phosphorylation in MDA 1986LN cells were determined. These cells were incubated with either different concentrations of AG490 or with 100 μM of AG490 for different durations and the levels of p-STAT3 and STAT3 were assessed.

COc1cc(/C=C/C(=O)CC(=O)/C=C/c2ccc(O)c(OC)c2)ccc1O [curcumin, diferuloylmethane]
proliferation of dex-resistant and dex-sensitive multiple myeloma cells (MM.1S and MM.1R cells): inhibited the proliferation of dex-resistant and dex-sensitive multiple myeloma cells similarly
IL-6-induced cell proliferation in MM.1 cells (MM.1 cells): inhibited IL-6-induced cell proliferation
reversibility of inhibition of STAT3 phosphorylation (STAT3 phosphorylation; 50 μM 1 h then washed): removal of curcumin resulted in gradual increase in phosphorylated STAT3
earliest time at which inhibition of constitutive STAT3 phosphorylation could be observed (STAT3 phosphorylation; 50 μM curcumin): 30 min
lowest concentration at which inhibition of constitutive STAT3 phosphorylation could be observed (STAT3 phosphorylation; 1 h): 25 µM
inhibition of constitutive STAT3 phosphorylation (STAT3 phosphorylation; curcumin 50 μM, 1 h): inhibited the STAT3 phosphorylation completely; also recorded: completely inhibit
overall expression / levels of STAT3 protein (STAT3 phosphorylation; curcumin treatment): did not alter the overall expression of STAT3 protein; also recorded: unaffected
